Test results taken from US11247965B2 (VenatoRx Pharmaceuticals, Inc., priority 2017, dated 2022).

Experiments:
[1] = In vitro cytotoxicity, MTT cell viability assay in HepG2 cells; assay type: cell-based; details: human, Cytotoxicity CC50
Experimental: To evaluate antiviral selectivity, the cytotoxic activity of each compound was determined using a standard cell viability assay performed on the parental HepG2 cell line. Cell viability was determined by measuring the conversion of 3-(4,5-dimethylthiazol-2-yl)-2,5-diphenyltetrazolium bromide (MTT) to the insoluble formazan salt crystal that occurs in live cells. Briefly, HepG2 cells were seeded in 96-well plates at a density of 20,000 cells per well in EMEM+10% FBS (complete growth medium) and allowed to adhere overnight in a 37° C., 5% CO2 humidified incubator. The next day, test agents were prepared by performing 8 half-log10 serial dilutions in 100% DMSO at 200× the final desired concentration in the assay. Compounds were tested over a range of concentrations from 30 μM to 1.0 nM in the assay. HepG2 cells were incubated in the presence of various concentrations of CAMs for 7 days in a 37° C., 5% CO2 humidified incubator. At the completion of the 7-day incubation period, MTT reagent was added to each well and the mixture was incubated for an additional 3-4 hours. At the completion of the incubation period, all wells were aspirated to remove the culture medium. The formazan crystals were solubilized from the cell monolayers with 100% DMSO. Plates were briefly mixed on an orbital shaker and absorbance was measured at 492 nm using a Perkin-Elmer EnVision multi-label plate reader. All absorbance values were converted to a percentage of the signal obtained from the vehicle treated controls. Absorbance values at 492 nm are directly proportional to the number of viable cells present in the sample. A CC50 value (cytotoxic concentration that results in loss of 50% cell viability) was calculated from the dose-response curve by 4-parameter, non-linear regression analysis using the GraphPad Prism software. The positive control compound, staurosporine, reduced the viability of HepG2 cells in a dose-dependent manner (CC50=100 nM).

[2] = tested on: HBV replication in HepAD38 cells; assay: Anti-HBV activity in HepAD38 cells, extracellular HBV DNA by QPCR; assay type: cell-based, HBV (genotype D, serotype ayw); details: Hepatitis B virus, HePAD38, 168 h, read-out: Anti-HBV EC50, HepAD38 cells, extracellular HBV DNA by QPCR, 7 days of incubation
Experimental: The anti-HBV activity of the Capsid Assembly Modulators (CAMs) was evaluated in a cell based assay utilizing the human hepatoma cell line HepAD38 (Ladner, S K., et al., 1998). HepAD38 cells were derived from the parental line, HepG2, that were stably transfected with a construct containing an HBV genome (genotype D, serotype ayw) under the control of a tetracycline repressible CMV promoter. Upon removal of tetracycline, viral pre-genomic RNA (pgRNA) and mRNAs are expressed and infectious viral particles are assembled and secreted into the culture medium providing a reliable, robust system to measure multiple steps of the HBV life cycle. Disruption of capsid formation results in reduced levels of DNA-containing virus particles that are released into the culture supernatant. To quantify the effect of CAMs on HBV replication, we developed a sensitive QPCR-based assay that measures extracellular HBV DNA levels upon treatment of HepAD38 cells with various concentrations of test compounds.
HepAD38 cells were maintained in DMEM/F12 medium containing 10% FBS, 400 μg/mL G418 and 0.3 μg/mL tetracycline (tet+medium) to maintain repression of HBV replication. To evaluate each compound, HepAD38 cells were seeded into 24-well collagen coated culture plates (Corning BioCoat) at a density of 200,000 cells per well in 1 mL of tet+medium and allowed to adhere overnight at 37° C., 5% CO2 in a humidified incubator. The following day, test articles were subjected to half-logo serial dilutions, ranging from 30 μM to 10 nM, in 100% DMSO at 200× the desired final assay concentration. Tetracycline was removed from the cells by aspirating the tet+medium and washing the cells once with growth medium lacking tetracycline (tet-). Various concentrations of each compound were added to the appropriate wells (1:200 dilution) and the plates were returned to the incubator. Following 7 days of incubation, culture supernatants were harvested and HBV DNA levels were evaluated by QPCR and compared to the vehicle treated control wells (i.e. DMSO alone).
To quantify HBV DNA levels, cell culture supernatants were diluted 1:10 in sterile, nuclease-free water (Gibco). The diluted supernatants were subsequently added to a PCR master mix containing 1× Roche Light Cycler Master Mix, 0.5 μM forward primer, 0.5 μM reverse primer (Fwd:
0.2 μM Roche Universal Probe Library Probe 25. The volume was brought to 20 μL with nuclease-free water and amplification of the HBV target sequence was performed using a Roche LightCycler 480 QPCR instrument. PCR extended out to 45 cycles with each cycle consisting of a denaturation step at 95° C. for 10 sec., followed by an annealing step at 60° C. for 10 sec. and a brief extension step at 72° C. for 1 sec.
Extracellular HBV DNA levels, expressed in copies/mL, were determined by comparison to a standard curve (10^2-10^9 copies/mL) using the Roche LightCycler analysis software. These values were subsequently converted to percent inhibition of HBV replication by dividing the HBV DNA levels in the experimental samples with those obtained from the vehicle control (˜1-2×10^5 copies/mL). Potency, expressed as an EC50 (the effective concentration required to inhibit […] of HBV replication), was calculated from the dose-response curve using a 4-parameter non-linear regression analysis (GraphPad Prism). The nucleoside analog inhibitor entecavir was used as a positive control to validate each assay run. The EC50 value of entecavir in the HepAD38 assay was 0.5 nM, as previously reported in the literature.

Compound	CC50 at 7 days [1] [µM]	EC50 [2] [µM]
Cc1cc(NC(=O)c2csc(C(F)(F)C(=O)N3CCC(O)CC3)n2)ccc1F [Example 30, 2-(1,1-difluoro-2-(4-hydroxypiperidin-1-yl)-2-oxoethyl)-N-(4-fluoro-3-methylphenyl)thiazole-4-carboxamide]	5 to 30	5 to 30
CC(C)(CO)NC(=O)C(F)c1cc(C(=O)Nc2ccc(F)c(F)c2)ccc1F (stereo not drawn) [Example 31, N-(3,4-difluorophenyl)-4-fluoro-3-(1-fluoro-2-((1-hydroxy-2-methylpropan-2-yl)amino)-2-oxoethyl)benzamide]	5 to 30	5 to 30
O=C(Nc1ccc(F)c(F)c1)c1ccc(F)c(C(F)C(=O)N2CCC(O)CC2)c1 (stereo not drawn) [Example 32, N-(3,4-difluorophenyl)-4-fluoro-3-(1-fluoro-2-(4-hydroxypiperidin-1-yl)-2-oxoethyl)benzamide]	5 to 30	< 5
N#Cc1cc(NC(=O)c2ccc(Cl)c(C(F)(F)C(=O)N3CCC(O)CC3)c2)ccc1F [Example 33, 4-chloro-N-(3-cyano-4-fluorophenyl)-3-(1,1-difluoro-2-(4-hydroxypiperidin-1-yl)-2-oxoethyl)benzamide]	> 30	< 5
O=C(Nc1cc(F)c(F)c(F)c1)c1ccc(Cl)c(C(F)(F)C(=O)N2CCC(O)CC2)c1 [Example 34, 4-chloro-3-(1,1-difluoro-2-(4-hydroxypiperidin-1-yl)-2-oxoethyl)-N-(3,4,5-trifluorophenyl)benzamide]	5 to 30	< 5
O=C(Nc1ccc(F)c(Cl)c1)c1ccc(Cl)c(C(F)(F)C(=O)N2CCC(O)CC2)c1 [Example 35, 4-chloro-N-(3-chloro-4-fluorophenyl)-3-(1,1-difluoro-2-(4-hydroxypiperidin-1-yl)-2-oxoethyl)benzamide]	5 to 30	< 5
O=C(Nc1ccc(F)cc1)c1ccc(Cl)c(C(F)(F)C(=O)N2CCC(O)CC2)c1 [Example 36, 4-chloro-3-(1,1-difluoro-2-(4-hydroxypiperidin-1-yl)-2-oxoethyl)-N-(4-fluorophenyl)benzamide]	> 30	< 5
O=C(Nc1ccc(Cl)cc1F)c1ccc(Cl)c(C(F)(F)C(=O)N2CCC(O)CC2)c1 [Example 37, 4-chloro-N-(4-chloro-2-fluorophenyl)-3-(1,1-difluoro-2-(4-hydroxypiperidin-1-yl)-2-oxoethyl)benzamide]	> 30	> 30
O=C(Nc1ccc(F)cn1)c1ccc(Cl)c(C(F)(F)C(=O)N2CCC(O)CC2)c1 [Example 38, 4-chloro-3-(1,1-difluoro-2-(4-hydroxypiperidin-1-yl)-2-oxoethyl)-N-(5-fluoropyridin-2-yl)benzamide]	> 30	> 30
O=C(Nc1ccc(Cl)cc1)c1ccc(Cl)c(C(F)(F)C(=O)N2CCC(O)CC2)c1 [Example 39, 4-chloro-N-(4-chlorophenyl)-3-(1,1-difluoro-2-(4-hydroxypiperidin-1-yl)-2-oxoethyl)benzamide]	5 to 30	5 to 30
CN(C(=O)c1ccc(Cl)c(C(F)(F)C(=O)N2CCC(O)CC2)c1)c1ccc(Cl)cc1 [Example 40, 4-chloro-N-(4-chlorophenyl)-3-(1,1-difluoro-2-(4-hydroxypiperidin-1-yl)-2-oxoethyl)-N-methylbenzamide]	> 30	> 30
O=C(Nc1ccc(F)cc1Cl)c1ccc(Cl)c(C(F)(F)C(=O)N2CCC(O)CC2)c1 [Example 41, 4-chloro-N-(2-chloro-4-fluorophenyl)-3-(1,1-difluoro-2-(4-hydroxypiperidin-1-yl)-2-oxoethyl)benzamide]	> 30	5 to 30
O=C(Nc1ccc(F)c(F)c1)c1ccc(Cl)c(C(F)(F)C(=O)N2CCC(O)CC2)c1 [Example 42, 4-chloro-3-(1,1-difluoro-2-(4-hydroxypiperidin-1-yl)-2-oxoethyl)-N-(3,4-difluorophenyl)benzamide]	5 to 30	< 5
O=C(Nc1ccc(F)c(Br)c1)c1ccc(Cl)c(C(F)(F)C(=O)N2CCC(O)CC2)c1 [Example 43, N-(3-bromo-4-fluorophenyl)-4-chloro-3-(1,1-difluoro-2-(4-hydroxypiperidin-1-yl)-2-oxoethyl)benzamide]	5 to 30	< 5
Cc1cc(NC(=O)c2cnc(C(F)(F)C(=O)N3CCC(O)CC3)s2)ccc1F [Example 44, 2-(1,1-difluoro-2-(4-hydroxypiperidin-1-yl)-2-oxoethyl)-N-(4-fluoro-3-methylphenyl)thiazole-5-carboxamide]	> 30	> 30
CC(C)(CCO)NC(=O)C(F)(F)c1cc(C(=O)Nc2ccc(F)c(F)c2)ccc1F [Example 45, 3-(1,1-difluoro-2-((4-hydroxy-2-methylbutan-2-yl)amino)-2-oxoethyl)-N-(3,4-difluorophenyl)-4-fluorobenzamide]	5 to 30	< 5
CCN(CCCO)C(=O)C(F)(F)c1cc(C(=O)Nc2ccc(F)c(F)c2)ccc1F [Example 46, N-(3,4-difluorophenyl)-3-(2-(ethyl(3-hydroxypropyl)amino)-1,1-difluoro-2-oxoethyl)-4-fluorobenzamide]	> 30	5 to 30
CN(CCCO)C(=O)C(F)(F)c1cc(C(=O)Nc2ccc(F)c(F)c2)ccc1F [Example 47, 3-(1,1-difluoro-2-((3-hydroxypropyl)(methyl)amino)-2-oxoethyl)-N-(3,4-difluorophenyl)-4-fluorobenzamide]	> 30	5 to 30
O=C(Nc1ccc(F)c(F)c1)c1ccc(F)c(C(F)(F)C(=O)N2CCC(CO)CC2)c1 [Example 48, 3-(1,1-difluoro-2-(4-(hydroxymethyl)piperidin-1-yl)-2-oxoethyl)-N-(3,4-difluorophenyl)-4-fluorobenzamide]	5 to 30	< 5
O=C(Nc1ccc(F)c(F)c1)c1ccc(F)c(C(F)(F)C(=O)N2CCCC(CO)C2)c1 (stereo not drawn) [Example 49, 3-(1,1-difluoro-2-(3-(hydroxymethyl)piperidin-1-yl)-2-oxoethyl)-N-(3,4-difluorophenyl)-4-fluorobenzamide]	> 30	< 5
O=C(Nc1ccc(F)c(F)c1)c1ccc(F)c(C(F)(F)C(=O)Nc2ccncc2)c1 [Example 50, 3-(1,1-difluoro-2-oxo-2-(pyridin-4-ylamino)ethyl)-N-(3,4-difluorophenyl)-4-fluorobenzamide]	5 to 30	5 to 30
